# Test results as given in patent USRE48461E1, “Modulation of androgen receptor expression” (Ionis Pharmaceuticals, Inc., priority 2012, dated 2021).
# Oligonucleotides are written 5' to 3', each unit as a sugar letter and its base; * is a phosphorothioate linkage, no mark a phosphodiester; rarer units and linkages stand in square brackets, end groups in braces. Plain capitals give the bases only. k = constrained ethyl (cEt); d = 2'-deoxy (DNA)
# What was measured:
# Type in all cases: cell-based, human
# [1] = test system: TMPRSS2 mRNA; experiment: TMPRSS2 mRNA levels in LMR20 cells; settings: for TMPRSS2 mRNA levels (% baseline value) after treatment with DHT / TMPRSS2 mRNA levels (% baseline value) after treatment with R1881 / TMPRSS2 mRNA levels (% baseline value) of cells without AR agonist treatment: LMR20 cells; for TMPRSS2 mRNA levels (% baseline value) after treatment with DHT: DHT 10 nM 72 hrs; for TMPRSS2 mRNA levels (% baseline value) after treatment with R1881: R1881 10 nM 72 hrs; for TMPRSS2 mRNA levels (% baseline value) of cells without AR agonist treatment: no AR agonist
# Procedure: LMR20 cells were plated at 1,500 cells per well in phenol red-free medium with CSS.
# [2] = test system: LMR20 cells; experiment: Proliferation of MDV3100-resistant LMR20 cells (MTT; with R1881 or DHT); settings: 5 days
# Procedure: LMR20 cells were plated at 1,500 cells per well in phenol red-free medium with charcoal-stripped fetal bovine serum (CSS), to remove any androgens from the medium (Life Technologies). […] The synthetic androgen agonist, R1881, (Takeda, A. N. et al., Mol. Pharmacol. 2007. 71: 473-82) was added on day 1 at 1 nM dose to a set of cells also treated with each of the antisense oligonucleotides. DHT was added on day 1 at a dose of 10 nM to another set of cells also treated with each of the antisense oligonucleotides. […] After a treatment period of 5 days, the proliferative ability of the cancer cells was measured by the standard MTT assay. Results are presented in Table 42 as percent inhibition of proliferation, relative to non-treated cells.
# [3] = test system: C4-2B cells; experiment: C4-2B cell proliferation (complete or CSS+DHT medium; Example 30); settings: C4-2B cells, 5 days
# Procedure: After a treatment period of 5 days in complete medium or CSS+1 nM DHT medium, the proliferative capacity of the cancer cells was measured with using CellTiter 96® AQueous One or CellTiter-Glo® Solution Cell Proliferation kit (Promega), following the manufacturer's instructions.
# [4] = test system: PSA mRNA; experiment: PSA expression in 22RV1 cells; settings: RNAiMax, 48 hrs
# Procedure: Cells were plated at 1,000 cells per well. […] After an incubation period of 48 hrs, RNA levels of full length AR, the V7 variant, PSA and TMPRSS2 were measured.
# After an incubation period of 48 hrs, RNA levels of full length AR, the V7 variant, PSA and TMPRSS2 were measured.
# Cells were plated at 2,000 cells per well and cultured in CSS media for 16 hours. […] After 4 hrs, 1 nM DHT was added. […] After an incubation period of 48 hrs, RNA levels of AR, AR V7 variant, PSA and TMPRSS2 were measured.
# [5] = test system: PSA mRNA; experiment: PSA expression in C4-2 cells; settings: 48 hrs; for Percent inhibition of PSA expression: C4-2 cells, CSS + DHT medium
# Procedure: Cells were plated at 1,000 cells per well. […] After an incubation period of 48 hrs, RNA levels of AR, PSA and TMPRSS2 were measured.
# Cells were plated at 2,000 cells per well and cultured in CSS media with 1 nM DHT. […] After an incubation period of 48 hrs, RNA levels of AR, PSA and TMPRSS2 were measured.
# [6] = test system: AR mRNA; experiment: AR RNA expression in C4-2B cells (complete, CSS+DHT medium; Example 30); settings: 48 hrs
# Procedure: Cells were plated at 1,000 cells per well. […] ISIS 549148 was included as a negative control. […] After an incubation period of 48 hrs, RNA levels of AR, PSA and TMPRSS2 were measured.
# Cells were plated at 2,000 cells per well and cultured in CSS media with 1 nM DHT. […] ISIS 549148 was included as a negative control. […] After an incubation period of 48 hrs, RNA levels of AR, PSA and TMPRSS2 were measured. In the absence of DHT, AR expression in C4-2 cells was 188%, PSA expression was 43% and TMPRSS2 expression was 27% compared to the untreated control.
# [7] = test system: 22RV1 cells; experiment: 22RV1 cell proliferation (Example 32); settings: 22RV1 cells, complete medium, 5 days
# Procedure: After a treatment period of 5 days in complete medium, the proliferative capacity of the cancer cells was measured with using CellTiter 96® AQueous One or CellTiter-Glo® Solution Cell Proliferation kit (Promega), following the manufacturer's instructions. […] Treatment with ISIS oligonucleotides in CSS+DHT medium reduced the proliferative capacity to a greater extent than treatment with MVD-3100. The proliferative capacity of cells cultured in CSS medium without DHT is 12% of untreated control levels.
substance,measurement,setting,value
"GTTGATTTAATGGTTG (all phosphorothioate, sugars by position not given here; further chemistry not fully specified) [ISIS 549458]",TMPRSS2 mRNA levels in LMR20 cells,[1]; with or without DHT/R1881,reduced PSA levels and TMPRSS2 more extensively than the LNA gapmer ISIS 554221 or MDV3100
same,Percent inhibition of LMR20 cell proliferation,"[2]; CSS + DHT, ASO 0.04 μM",0%
same,Percent inhibition of LMR20 cell proliferation,"[2]; CSS + DHT, ASO 0.20 μM",25%
same,Percent inhibition of LMR20 cell proliferation,"[2]; CSS + DHT, ASO 1.0 μM",60%
same,Percent inhibition of LMR20 cell proliferation,"[2]; CSS + DHT, ASO 5.0 μM",70%
same,Percent inhibition of LMR20 cell proliferation,"[2]; CSS + R1881, ASO 0.04 μM",0%
same,Percent inhibition of LMR20 cell proliferation,"[2]; CSS + R1881, ASO 0.20 μM",22%
same,Percent inhibition of LMR20 cell proliferation,"[2]; CSS + R1881, ASO 1.0 μM",59%
same,Percent inhibition of LMR20 cell proliferation,"[2]; CSS + R1881, ASO 5.0 μM",74%
same,Percent inhibition of LMR20 cell proliferation,"[2]; CSS, ASO 0.04 μM",0%
same,Percent inhibition of LMR20 cell proliferation,"[2]; CSS, ASO 0.20 μM",0%
same,Percent inhibition of LMR20 cell proliferation,"[2]; CSS, ASO 1.0 μM",0%
same,Percent inhibition of LMR20 cell proliferation,"[2]; CSS, ASO 5.0 μM",5%
same,LMR20 cell proliferation,"[2]; in the presence of R1881 or DHT, 0.04-5.0 μM",significantly inhibited MDV3100-resistant prostate cancer cell proliferation in a dose dependent manner more extensively than ISIS 554221
"GGCTACTACGCCGTCA (3-10-3 (S)-cEt gapmer, chemistry not fully specified) [ISIS 549148, reference compound]",Proliferation (% untreated control),"[3]; CSS + DHT medium, 0.04 μM",109 % untreated control
same,Proliferation (% untreated control),"[3]; CSS + DHT medium, 0.2 μM",131 % untreated control
same,Proliferation (% untreated control),"[3]; CSS + DHT medium, 1 μM",119 % untreated control
same,Proliferation (% untreated control),"[3]; CSS + DHT medium, 5.0 μM",114 % untreated control
same,Proliferation (% untreated control),"[3]; complete medium, 0.04 μM",119 % untreated control
same,Proliferation (% untreated control),"[3]; complete medium, 0.2 μM",97 % untreated control
same,Proliferation (% untreated control),"[3]; complete medium, 1 μM",103 % untreated control
same,Proliferation (% untreated control),"[3]; complete medium, 5.0 μM",98 % untreated control
same,Percent inhibition of PSA expression,"[4]; CSS + DHT medium, 1.34 nM",8%
same,Percent inhibition of PSA expression,"[4]; CSS + DHT medium, 4.0 nM",23%
same,Percent inhibition of PSA expression,"[4]; CSS + DHT medium, 13.4 nM",29%
same,Percent inhibition of PSA expression,"[4]; complete medium, 1.34 nM",9%
same,Percent inhibition of PSA expression,"[4]; complete medium, 4.0 nM",11%
same,Percent inhibition of PSA expression,"[4]; complete medium, 13.4 nM",17%
same,Percent inhibition of PSA expression,"[4]; complete medium, 40 nM",27%
same,Percent inhibition of PSA expression,[5]; 0.04 μM,0%
same,Percent inhibition of PSA expression,[5]; 0.2 μM,8%
same,Percent inhibition of PSA expression,[5]; 1 μM,21%
same,Percent inhibition of PSA expression,[5]; 5.0 μM,22%
same,Percent inhibition of PSA expression in C4-2 cells cultured in complete medium,[5]; 0.04 μM,15%
same,Percent inhibition of PSA expression in C4-2 cells cultured in complete medium,[5]; 0.2 μM,24%
same,Percent inhibition of PSA expression in C4-2 cells cultured in complete medium,[5]; 1 μM,24%
same,Percent inhibition of PSA expression in C4-2 cells cultured in complete medium,[5]; 5.0 μM,23%
same,Percent expression of AR,"[6]; CSS + DHT medium, 0.04 μM",91%
same,Percent expression of AR,"[6]; CSS + DHT medium, 0.2 μM",104%
same,Percent expression of AR,"[6]; CSS + DHT medium, 1 μM",101%
same,Percent expression of AR,"[6]; CSS + DHT medium, 5.0 μM",95%
same,Percent expression of AR,"[6]; complete medium, 0.04 μM",101%
same,Percent expression of AR,"[6]; complete medium, 0.2 μM",91%
same,Percent expression of AR,"[6]; complete medium, 1 μM",88%
same,Percent expression of AR,"[6]; complete medium, 5.0 μM",87%
same,Proliferation (% untreated control),[7]; 1.34 nM,97 % untreated control
same,Proliferation (% untreated control),[7]; 4.0 nM,97 % untreated control
same,Proliferation (% untreated control),[7]; 13.4 nM,101 % untreated control
same,Proliferation (% untreated control),[7]; 40 nM,83 % untreated control
549458 (kG*kT*kT*dG*dA*dT*dT*dT*dA*dA*dT*dG*dG*kT*kT*kG) [compound 549458],TMPRSS2 mRNA levels (% baseline value) after treatment with DHT,[1]; ASO 0.04 μM,127 % baseline value
same,TMPRSS2 mRNA levels (% baseline value) after treatment with DHT,[1]; ASO 0.20 μM,119 % baseline value
same,TMPRSS2 mRNA levels (% baseline value) after treatment with DHT,[1]; ASO 1.0 μM,106 % baseline value
same,TMPRSS2 mRNA levels (% baseline value) after treatment with DHT,[1]; ASO 5.0 μM,91 % baseline value
same,TMPRSS2 mRNA levels (% baseline value) after treatment with R1881,[1]; ASO 0.04 μM,137 % baseline value
same,TMPRSS2 mRNA levels (% baseline value) after treatment with R1881,[1]; ASO 0.20 μM,119 % baseline value
same,TMPRSS2 mRNA levels (% baseline value) after treatment with R1881,[1]; ASO 1.0 μM,96 % baseline value
same,TMPRSS2 mRNA levels (% baseline value) after treatment with R1881,[1]; ASO 5.0 μM,96 % baseline value
same,TMPRSS2 mRNA levels (% baseline value) of cells without AR agonist treatment,[1]; ASO 0.04 μM,110 % baseline value
same,TMPRSS2 mRNA levels (% baseline value) of cells without AR agonist treatment,[1]; ASO 0.20 μM,85 % baseline value
same,TMPRSS2 mRNA levels (% baseline value) of cells without AR agonist treatment,[1]; ASO 1.0 μM,54 % baseline value
same,TMPRSS2 mRNA levels (% baseline value) of cells without AR agonist treatment,[1]; ASO 5.0 μM,62 % baseline value
